Converted amounts (≈) assume the structure as drawn. Where a name gives a salt, the structure may show the parent alone.
Legend:
[1] = tested on: S. aureus 1840; assay: MIC, S. aureus 1840; type: cell-based; conditions: unit assumed
[2] = tested on: E. coli NIHJ JC-2; assay: MIC, E. coli NIHJ JC-2; type: cell-based; conditions: unit assumed
[3] = tested on: K. pneumoniae DT; assay: MIC, K. pneumoniae DT; type: cell-based; conditions: unit assumed
[4] = tested on: P. vulgaris Eb. 58; assay: MIC, P. vulgaris Eb. 58; type: cell-based; conditions: unit assumed
[5] = tested on: E. coli 0-111; assay: MIC, E. coli 0-111; type: cell-based; conditions: unit assumed
[6] = in vivo, po; for Blood-level in rat, 0.5 hours: 30 min; for Blood-level in rat, 1 hour: 60 min; for Blood-level in rat, 2 hours: 120 min; for Hydrolysis of 4-position ester after absorption in blood: rat
[7] = tested on: S. aureus 209P; assay: MIC, S. aureus 209P; type: cell-based; conditions: unit assumed

Blood-level in rat, 0.5 hours ([6]; 100 mg/kg) [meg/ml]	Blood-level in rat, 1 hour ([6]; 100 mg/kg) [meg/ml]	Blood-level in rat, 2 hours ([6]; 100 mg/kg) [meg/ml]	Blood-level in rat, 4 hours ([6]; 100 mg/kg, 240 min) [meg/ml]	SMILES	MIC [1] [µg/mL]	MIC [2] [µg/mL]	MIC [3] [µg/mL]	MIC [4] [µg/mL]	MIC [5] [µg/mL]	Hydrolysis of 4-position ester after absorption in blood [6]	MIC [7] [µg/mL]
–	–	–	–	CC1=C(C(=O)O)N2C(=O)[C@@H](NC(=O)[C@H](N)c3ccccc3)[C@H]2SC1 [Cephalexin, reference compound]	12.5 (≈ 36 µM)	12.5 (≈ 36 µM)	6.25 (≈ 18 µM)	12.5 (≈ 36 µM)	12.5 (≈ 36 µM)	–	–
31.8	29.3	22.0	8.7	Cc1nnc(SCC2=C(C(=O)OCOC(=O)C(C)(C)C)N3C(=O)[C@@H](NC(=O)Cc4csc(=N)[nH]4)[C@H]3SC2)s1 [Example 1, 7β-(2-imino-4-thiazolin-4-yl)acetamido-3-(5-methyl-1,3,4-thiadizolyl-2-yl)thiomethyl-3-cephem-4-pivaloyloxymethyl carboxylate hydrochloric acid salt]	–	–	–	–	–	hydrolyzed at 4-position carboxylic acid ester after being absorbed in blood	–
–	–	–	–	Cc1nnc(SCC2=C(C(=O)O)N3C(=O)[C@@H](NC(=O)Cc4csc(=N)[nH]4)[C@H]3SC2)s1 [Compound (A)]	0.78 (≈ 1.61 µM)	1.56 (≈ 3.22 µM)	0.39 (≈ 0.805 µM)	0.78 (≈ 1.61 µM)	0.39 (≈ 0.805 µM)	–	0.39 (≈ 0.805 µM)
32.4	28.3	21.0	–	CCOC(=O)OC(C)OC(=O)C1=C(CSc2nnc(C)s2)CS[C@@H]2[C@H](NC(=O)Cc3csc(=N)[nH]3)C(=O)N12 (some centres unmarked) [Example 2]	–	–	–	–	–	hydrolyzed at 4-position carboxylic acid ester after being absorbed in blood	–

— patent US4260607A, “Cephalosporin esters” (Takeda Chemical Industries, Ltd., priority 1976, dated 1981)
